Patent US4576951A, “Proglumide, pharmaceutical preparations and compositions including it for use in human pain relief” (priority 1983, dated 1986)
Like-named read-outs stand apart in the source and are kept apart here.

Experiments:
[1] = format: in vivo, rats
Protocol: The method is that described by Harris et al. (J. Pharmcol. Exp. Ther. 143 (1964) 141-148).
Male rats are used which have a weight of about 150-200 g and which have not been fasting. A point is chosen on the tail and this is irradiated by a heat source (75° C.) and the time (in seconds) for which the animal remains without moving its tail is measured.
A maximum period of time under the heat source of 8 seconds is chosen after which the animal is, in any case, removed in order to avoid tissue damage. The measurement is effected before (controls) and after treatment with the drugs. […] The percentage variation is calculated for each individual animal by the following formula: [formula] (time measurements are in seconds)
The measurements are carried out 10, 20, 30, 45, 60 and 90 minutes after treatment with the analgesics.

[2] = Randall-Selitto test: analgesia produced by opiates; format: in vivo, rats; conditions: for t (vs controls): Student t
Protocol: Analgesic activity in the Randall-Selitto test
The method is that described by Winters et al (J. Pharmacol. Exp. Ther. 150, 165 (1965). Groups of five female rats having an average weight of about 100 g and which have not been fasting are used. A 20% saline solution of yeast is administered into the sub-plantar region of the right hind leg.
The compounds to be tested are administered s.c. 2 hours after the injection of inflammatory agent 0.5 hours after the administration of the drugs, the pain threshold is determined by measuring the pressure needed to induce a flight reaction in the animal. The results obtained are given in Table No. 3 which records the groups treated and the doses administered, the pain threshold expressed as a pressure exerted in mmHg to cause the pain stimulus (average±S.E.) and a statistical evaluation of the results of the various treated groups by the Student "t" test.

[3] = in vivo; conditions: mouse, sc
Protocol: The drug (or drugs) under examination was administered sub-cutaneously. The animals were kept under observation for 15 days after the administration.
Ten animals were used for each dose.

[4] = Hot plate test: potentiation of analgesic activity of opiates; format: in vivo, rats; conditions: morphine 2.5 or methadone 1 mg/kg s.c. alone
Protocol: The method is that described by Eddy et al. (J. Pharmac. Exp. Therm. 107, 385 (1953)).
Groups of five male rats having a weight of about 150 g and which have not been fasting are used.
The animals are placed on a metal plate which is on the bottom of a transparent cylinder heated to 55°±1° C. by an azeotropic boiling mixture (1:1 acetone-ethyl formate). The time which passes between the moment at which the animal is placed on the hot plate and the moment at which it licks its feet or tries to jump out of the cylinder is defined as the reaction time. The control reaction time is measured 10 and 5 minutes before the administration of the drugs and 10, 20, 30, 45, 60, 90 minutes afterwards. The animals are left on the plate for a maximum period of 30 seconds. The response to the administration of the product is considered positive if at least a doubling of the normal reaction time is seen. The results obtained are given in Table 2 which records the groups treated, the doses administered and the stay times on the plate expressed as the number of positive responses over the number treated.

[5] = format: in vivo, rats; conditions: morphine 5 mg/kg i.p. repeated
Protocol: Activity of proglumide as an antagonist to the tolerance induced by opiates
Groups of five male rats having a weight of about 200-250 g were used.
The determination of the pain threshold was effected 1, 3, 6, 9 and 12 hours after the first treatment by the Tail Flick test.
The data given in Table 5 indicate the percentage variations in the latency (appearance of pain) before and after treatment with the drugs.

[6] = Potentiation of analgesic effect of enkephalinamide (DALA) i.c.v. (Tail Flick test); format: in vivo, rats; conditions: alone i.c.v.: proglumide 1 or DALA 10 μg/kg
Protocol: Potentiation of the analgesic activities of enkephalins induced by proglumide
In order to check one of the possible mechanisms for the action of proglumide, that is its possible inhibition of the enzymatic degradation of endogenous enkephalins, the following experiment was carried out:
A cannula was implanted in the right lateral ventricle of male rats having a weight of 150-200 g (groups of five animals were used) in order to allow the intracerebroventricular (I.C.V.) administration of drugs according to the method of Noble et al (Life Science 6, (1970) 281-291). […]

[7] = higher dose alone s.c.: morphine 2, propoxyphene 25, pentazocine 6 mg/kg
[8] = lower dose alone s.c.: morphine 0.5, propoxyphene 7.5, pentazocine 2 mg/kg

CCC(=O)O[C@](Cc1ccccc1)(c1ccccc1)[C@H](C)CN(C)C [Dextropropoxyphene]
X, potency ratio with respect to morphine = 1 ([1]; rat, in vivo): 1 | average percentage variation in latency M (1-90') ± S.E. ([1]; rat, in vivo): 33.48 ± 7.16 | t (vs controls) [2, 7]: 3.71 | t (vs controls) [2, 8]: 3.34 | P (vs controls) [2, 7]: < 0.01 | Pain threshold (mmHg) M ± S.E. [2, 7]: 50.7 ± 10.02 mmHg | P (vs controls) [2, 8]: < 0.05 | Pain threshold (mmHg) M ± S.E. [2, 8]: 37.5 ± 7.12 mmHg

CCC(=O)C(CC(C)N(C)C)(c1ccccc1)c1ccccc1 (centres unmarked) [Methadone]
LD50 at 360 h [3]: 53.5 mg/kg | positive responses / treated ([4]; 10 min): 1/5 | positive responses / treated ([4]; 20 min): 2/5 | positive responses / treated ([4]; 30 min): 1/5 | positive responses / treated ([4]; 45 min): 2/5 | positive responses / treated ([4]; 60 min): 1/5 | positive responses / treated ([4]; 90 min): 1/5 | A* = Tot. positive X/30 ([4]; total over 10-90 min): 8

CC(C)=CCN1CCC2(C)c3cc(O)ccc3CC1C2C (centres unmarked) [Pentazocine]
t (vs controls) [2, 7]: 6.63 | t (vs controls) [2, 8]: 2.50 | P (vs controls) [2, 7]: < 0.001 | Pain threshold (mmHg) M ± S.E. [2, 7]: 48.6 ± 4.93 mmHg | P (vs controls) [2, 8]: < 0.05 | Pain threshold (mmHg) M ± S.E. [2, 8]: 27.9 ± 5.71 mmHg

CN1CC[C@]23c4c5ccc(O)c4O[C@H]2[C@@H](O)C=C[C@H]3[C@H]1C5 [Morphine]
percentage variation in the latency of the pain sensation ([1]; 10 min, morphine 3 or dextropropoxyphene 6 mg/kg alone): 29.0 ± 20.4% | percentage variation in the latency of the pain sensation ([1]; 20 min, morphine 3 or dextropropoxyphene 6 mg/kg alone): 35.0 ± 9.4% | percentage variation in the latency of the pain sensation ([1]; 30 min, morphine 3 or dextropropoxyphene 6 mg/kg alone): 71.4 ± 12.1% | percentage variation in the latency of the pain sensation ([1]; 45 min, morphine 3 or dextropropoxyphene 6 mg/kg alone): 49.3 ± 21.3% | percentage variation in the latency of the pain sensation ([1]; 60 min, morphine 3 or dextropropoxyphene 6 mg/kg alone): 38.8 ± 23.9% | percentage variation in the latency of the pain sensation ([1]; 90 min, morphine 3 or dextropropoxyphene 6 mg/kg alone): 38.3 ± 20.1% | average percentage variation in latency M (1-90') ± S.E. ([1]; mean 1-90 min, morphine 3 or dextropropoxyphene 6 mg/kg alone): 43.62 ± 7.37% | percentage variation in the latency ([5]; 1 h): 58.98 ± 16.3% | percentage variation in the latency ([5]; 3 h): 67.58 ± 11.1% | percentage variation in the latency ([5]; 6 h): 30.0 ± 15.3% | percentage variation in the latency ([5]; 9 h): 38.62 ± 8.7% | percentage variation in the latency ([5]; 12 h): 23.1 ± 8.6%

D-ala-methionine-enkephalinamide [DALA]
% variation in the latency to pain ([6]; 5 min): 61.06 ± 11.8% | % variation in the latency to pain ([6]; 15 min): 51.04 ± 4.6% | % variation in the latency to pain ([6]; 30 min): 40.00 ± 9.04% | % variation in the latency to pain ([6]; 45 min): 25.24 ± 7.7% | % variation in the latency to pain ([6]; 60 min): 14.68 ± 9.2% | % variation in the latency to pain ([6]; 90 min): 10.06 ± 8.3% | Average (0 → 90) % variation in the latency to pain [6]: 33.7 ± 8.3%
